{"source": "patent US10351501B2", "about": "“Gem difluorocompounds as depigmenting or lightening agents” (TFCHEM, priority 2015, dated 2019)", "key": {"[1]": {"assay": "In vitro stability: hydroquinone released in various chemical conditions (HPLC-UV/DAD)", "type": "physicochemical", "method": "The stability of compound 11 was evaluated by the released of hydroquinone, which is a potentially toxic compound, in different chemical conditions (extreme conditions, simulating the application of these molecules on the skin) and it was compared to the deoxyarbutin.\nThis study involved different tests as degradation test and chemical stability (various chemical solutions, pH and temperatures).\nAnalytical Method (HPLC-UV/DAD Method)\nColumn Atlantis dC18 150 mm*4.6 mm*3 μm Waters, 30° C. Injection 50 μl, 25° C. λ: 220 nm, 265 nm, 285 nm. A-Acetonitrile B-Water; 0.8 ml/min; elution gradient: […]\nThis analytical method gave linear response for compound 11, Deoxyarbutin and Hydroquinone from 25 ng/mL to 1000 ng/mL. Dilution of samples had to be taken into account for each stability study to calculate the LLOQ of each compound.\nThe tested compounds are incubated in different solutions, at different times (see table 1). Then the analytical method was used to quantify remaining compounds and potential hydroquinone released (as possible degradation of compounds).\nHydroquinone (HQ) apparition is expressed as a percentage of initial compound 11 or Deoxyarbutin. The calculation was done in molar units and the limit of quantification fluctuates with the initial concentration."}, "[2]": {"assay": "In vitro human skin absorption, Franz diffusion cell: quantification in the receptor fluid (flux)", "type": "in vitro ADME", "conditions": "human, 2 mg/ml", "text": "(§1) The aim of this study was to evaluate the absorption of compound 11 applied to excised human skin.\n(§2) In vitro method using a Franz diffusion cell allows measuring the diffusion of chemicals into and across skin.\n(§3) The tested compound is applied to the surface of a human skin explant separating the two chambers of a Franz diffusion cell. The compound remains on the skin for a specified time under specified conditions. The receptor fluid is sampled at time points throughout the experiment and analyzed for the tested compound. The skin may also be fractioned for separate analysis in epidermis or dermis layers.\nThe transcutaneous absorption was measured on human skin collected from the abdominoplasty of a single donor. At reception, the skin was defatted and cut in several fragments in order to perform Franz experiment. […]\nThe tested compounds were quantified, at T0 h and T24 h in the receptor solution bathing the inner surface of the skin (determination of flux), or at T24 h in the fractionated skin extracts (epidermis or dermis). […]\nSampling: 500 μL from the receptor fluid were removed at T0 h (replaced by Ringer solution) and at T24 h. These samples were analyzed by LC-MS/MS method for quantification of compound 11 and deoxyarbutin (results not shown). The quantity measured allowed to calculate a flux and to compare the absorption profile across the skin of compound 11 and deoxyarbutin."}, "[3]": {"assay": "In vitro human skin absorption, Franz diffusion cell: quantification in skin fractions (epidermis, dermis)", "type": "in vitro ADME", "conditions": "emulsion 0.1 mg/mL, 200 μL, T24 h", "text": "as §1, §2, §3\nThe transcutaneous absorption was measured on human skin collected from the abdominoplasty of a single donor. […]\nThe tested compounds were quantified, at T0 h and T24 h in the receptor solution bathing the inner surface of the skin (determination of flux), or at T24 h in the fractionated skin extracts (epidermis or dermis).\nTo prepare the extracts, the skin explant is firstly divided in dermis and epidermis layers, then 500 μL of methanol were added on each piece of skin and incubated in an ultrasonic bath for 4 hours. […] Secondly the quantification of compounds by LC-MS/MS method was realized on 100 μl of the previous preparation added with 1000 μl of ultrapure water and 10 μl of an internal standard […]\nThe skin extracts were prepared at T24 h and the quantification of compound 11 was performed. […]"}}, "data": [{"smiles": "Oc1ccc(OC2CCCCC2(F)F)cc1", "note": "(racemic) [Compound 11]", "values": [{"measurement": "% Hydroquinone released", "setting": "[1]; Ringer's solution pH 5.5 at 70° C., 24 H", "value": 0.00, "unit": "%"}, {"measurement": "% Hydroquinone released", "setting": "[1]; Ringer's solution pH 8.5 at 70° C., 24 H", "value": 0.00, "unit": "%"}, {"measurement": "% Hydroquinone released", "setting": "[1]; Synthetic perspiration at RT, 48 H", "value": 0.00, "unit": "%"}, {"measurement": "% Hydroquinone released", "setting": "[1]; Water at room temperature, 14 Days", "value": 0.00, "unit": "%"}, {"measurement": "Hydroquinone release", "setting": "[1]; whatever the tested conditions", "value": "never released"}, {"measurement": "Flux, mean (n = 3)", "setting": "[2]", "value": 2.71, "unit": "μg/h/cm^2"}, {"measurement": "Quantity in skin extract", "setting": "[3]; DERMIS", "value": "5.1 μg/g of tissue"}, {"measurement": "Quantity in skin extract", "setting": "[3]; EPIDERMIS", "value": "22.3 μg/g of tissue"}]}]}
